Patent publication US20170087174A1, “COMBINATION THERAPY REGIMEN FOR TREATMENT OF HCV” (JANSSEN PHARMACEUTICALS, INC., priority 2015, published 2017)
“Also recorded” adds a separate entry of the source. Where two headings read alike, the source gives them in different places.

Tests used:
[1] = biological target: P-gp (Homo sapiens, UniProt P08183); conditions: in vitro, cited from earlier work
[2] = PK of single agents vs fixed dose combinations (FDC), single oral dose in healthy volunteers; format: in vivo, human; conditions: for Cmax / AUC(0-t) / AUC(0-inf) / Tmax: human, plasma, oral; for Cmax: read-out: Cmax (mean ± SD); for AUC(0-t): read-out: AUClast (mean ± SD); for AUC(0-inf): read-out: AUC∞ (mean ± SD); for Tmax: read-out: tmax (median [range])
Method in brief: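 Healthy volunteers received single oral doses of SMV 100 mg, ODV 50 mg and Compound (III) 800 mg, either as separate agents (reference arm) or as fixed dose combinations with ODV spray-dried with HPMC-AS L (1/1 or 1/3 w/w) or with copovidone/poloxamers. Plasma Cmax, tmax, AUClast and AUC∞ determined for parent drugs and metabolites Compound A-1 and A-3.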

[3] = tested on: CYP (cytochrome P450 enzymes); experiment: CYP inhibition in vitro
[4] = biological target: MRP2 (Homo sapiens, UniProt Q92887); conditions: in vitro; cited from earlier work
MRP2, sequence (Q92887 whole entry): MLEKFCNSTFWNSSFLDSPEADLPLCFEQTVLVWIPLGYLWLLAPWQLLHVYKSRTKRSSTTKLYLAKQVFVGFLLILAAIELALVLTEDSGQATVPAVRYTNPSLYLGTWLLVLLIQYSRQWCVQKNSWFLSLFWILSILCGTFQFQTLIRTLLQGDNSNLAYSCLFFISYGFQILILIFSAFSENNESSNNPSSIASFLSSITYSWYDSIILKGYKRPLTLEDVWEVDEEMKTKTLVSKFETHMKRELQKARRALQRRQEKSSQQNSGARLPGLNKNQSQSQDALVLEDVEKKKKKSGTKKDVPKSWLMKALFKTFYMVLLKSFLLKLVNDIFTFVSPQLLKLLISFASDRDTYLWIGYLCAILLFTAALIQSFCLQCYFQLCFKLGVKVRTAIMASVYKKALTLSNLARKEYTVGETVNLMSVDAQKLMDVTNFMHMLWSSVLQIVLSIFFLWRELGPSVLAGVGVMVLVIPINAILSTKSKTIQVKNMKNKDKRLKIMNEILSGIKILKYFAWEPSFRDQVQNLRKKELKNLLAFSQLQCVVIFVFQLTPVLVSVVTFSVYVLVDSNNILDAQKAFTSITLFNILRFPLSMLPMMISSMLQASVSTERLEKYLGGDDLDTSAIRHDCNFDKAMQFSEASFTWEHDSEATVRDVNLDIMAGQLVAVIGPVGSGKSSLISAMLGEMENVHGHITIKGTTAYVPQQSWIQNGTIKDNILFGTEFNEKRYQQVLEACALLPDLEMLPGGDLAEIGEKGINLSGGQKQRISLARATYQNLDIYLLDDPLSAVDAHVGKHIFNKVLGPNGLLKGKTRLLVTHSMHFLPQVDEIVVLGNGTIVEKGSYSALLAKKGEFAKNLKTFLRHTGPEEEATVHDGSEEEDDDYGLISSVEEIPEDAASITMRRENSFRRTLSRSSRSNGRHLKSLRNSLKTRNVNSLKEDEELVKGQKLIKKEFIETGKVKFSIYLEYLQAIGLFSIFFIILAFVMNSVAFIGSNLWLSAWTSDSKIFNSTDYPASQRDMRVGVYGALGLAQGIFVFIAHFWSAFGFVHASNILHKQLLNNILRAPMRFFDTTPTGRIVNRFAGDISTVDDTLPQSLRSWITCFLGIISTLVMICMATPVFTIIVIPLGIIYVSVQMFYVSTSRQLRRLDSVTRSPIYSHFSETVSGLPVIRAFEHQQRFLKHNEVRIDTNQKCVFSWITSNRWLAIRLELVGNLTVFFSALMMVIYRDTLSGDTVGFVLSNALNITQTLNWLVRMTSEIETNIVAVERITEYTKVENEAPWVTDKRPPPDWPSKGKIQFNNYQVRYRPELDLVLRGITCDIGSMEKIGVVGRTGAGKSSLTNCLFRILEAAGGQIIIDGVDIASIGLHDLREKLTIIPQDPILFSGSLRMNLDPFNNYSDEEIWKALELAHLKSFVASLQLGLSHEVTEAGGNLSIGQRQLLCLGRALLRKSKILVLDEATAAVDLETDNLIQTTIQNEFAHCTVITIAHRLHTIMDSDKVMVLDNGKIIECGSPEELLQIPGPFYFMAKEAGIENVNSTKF

[5] = Phase 2a open-label combination study: pharmacokinetics (exposure); format: in vivo, human
Experimental: A randomized, Phase 2a, open-label study was carried out to evaluate the safety, pharmacokinetics and efficacy of the combination of Compound (III), Odalasvir and Simeprevir in Genotype 1 treatment-naïve subjects with chronic hepatitis C. Other treatment-naïve subjects included Genotype 2, 3, 4, 5 and 6.
The aim of the study was to determine the efficacy, pharmacokinetics (PK), and safety of Compound (III)+Odalasvir±SMV in HCV-infected subjects.
This was an open-label study evaluating various dosing regimens of Compound (III)+Odalasvir±SMV for 6-8 weeks in treatment-naïve HCV-infected subjects with varying clinical characteristics (e.g., GT 1 or 3, presence/absence of compensated Child Pugh A cirrhosis). Efficacy, PK and safety evaluations were conducted during and through 24 weeks post dosing. Up to 15 cohorts were enrolled; data was generated from cohorts that have completed dosing.

[6] = biological target: BSEP (Homo sapiens, UniProt O95342); conditions: in vitro; cited from earlier work
BSEP, sequence (O95342 whole entry): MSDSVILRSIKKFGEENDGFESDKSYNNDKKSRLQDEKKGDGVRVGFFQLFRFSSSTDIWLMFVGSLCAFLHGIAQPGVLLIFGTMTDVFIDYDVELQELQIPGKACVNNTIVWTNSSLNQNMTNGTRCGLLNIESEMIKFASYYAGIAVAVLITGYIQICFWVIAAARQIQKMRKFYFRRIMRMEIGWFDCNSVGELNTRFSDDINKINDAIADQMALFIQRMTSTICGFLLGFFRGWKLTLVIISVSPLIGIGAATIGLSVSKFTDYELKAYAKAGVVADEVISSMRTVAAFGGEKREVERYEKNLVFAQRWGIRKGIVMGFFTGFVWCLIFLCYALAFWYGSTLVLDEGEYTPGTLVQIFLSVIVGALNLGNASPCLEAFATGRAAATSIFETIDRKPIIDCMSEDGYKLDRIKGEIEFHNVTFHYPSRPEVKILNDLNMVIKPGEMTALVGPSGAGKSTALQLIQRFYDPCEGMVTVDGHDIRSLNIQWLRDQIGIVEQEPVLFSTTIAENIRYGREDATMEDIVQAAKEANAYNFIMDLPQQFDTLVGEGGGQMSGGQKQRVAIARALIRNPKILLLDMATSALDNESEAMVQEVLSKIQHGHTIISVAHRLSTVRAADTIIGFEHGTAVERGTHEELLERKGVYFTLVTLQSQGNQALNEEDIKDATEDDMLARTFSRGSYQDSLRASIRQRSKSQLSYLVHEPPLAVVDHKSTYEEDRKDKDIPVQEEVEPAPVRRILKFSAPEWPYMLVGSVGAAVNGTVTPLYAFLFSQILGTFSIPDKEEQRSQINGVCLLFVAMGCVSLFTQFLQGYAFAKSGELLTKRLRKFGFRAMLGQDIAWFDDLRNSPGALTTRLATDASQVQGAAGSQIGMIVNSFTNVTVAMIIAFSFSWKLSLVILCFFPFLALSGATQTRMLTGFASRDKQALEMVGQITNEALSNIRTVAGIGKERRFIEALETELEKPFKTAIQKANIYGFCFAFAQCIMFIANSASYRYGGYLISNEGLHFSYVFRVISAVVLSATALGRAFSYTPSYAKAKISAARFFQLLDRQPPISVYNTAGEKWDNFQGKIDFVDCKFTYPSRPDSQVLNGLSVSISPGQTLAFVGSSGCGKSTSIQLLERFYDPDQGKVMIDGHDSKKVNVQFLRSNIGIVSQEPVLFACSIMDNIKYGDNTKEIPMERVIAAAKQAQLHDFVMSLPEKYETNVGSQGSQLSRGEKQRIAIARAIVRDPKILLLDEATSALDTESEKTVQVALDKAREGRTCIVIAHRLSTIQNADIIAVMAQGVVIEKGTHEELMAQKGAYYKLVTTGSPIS

[7] = Phase-1 drug-drug interaction study in healthy volunteers (Compound (III) 800 mg, SMV 150 mg, Odalasvir 150 mg loading then 50 mg, once daily): plasma PK; format: in vivo, human; conditions: for AUC0-24 / Cmax: both sexes, human, plasma, oral; for AUC0-24: read-out: AUC0-24; for Cmax: read-out: Cmax
From the text: The following daily doses were employed:

[8] = biological target: T1, OATP1B1 (Homo sapiens, UniProt Q9Y6L6); conditions: in vitro; cited from earlier work
T1 sequence (Q9Y6L6 1-691): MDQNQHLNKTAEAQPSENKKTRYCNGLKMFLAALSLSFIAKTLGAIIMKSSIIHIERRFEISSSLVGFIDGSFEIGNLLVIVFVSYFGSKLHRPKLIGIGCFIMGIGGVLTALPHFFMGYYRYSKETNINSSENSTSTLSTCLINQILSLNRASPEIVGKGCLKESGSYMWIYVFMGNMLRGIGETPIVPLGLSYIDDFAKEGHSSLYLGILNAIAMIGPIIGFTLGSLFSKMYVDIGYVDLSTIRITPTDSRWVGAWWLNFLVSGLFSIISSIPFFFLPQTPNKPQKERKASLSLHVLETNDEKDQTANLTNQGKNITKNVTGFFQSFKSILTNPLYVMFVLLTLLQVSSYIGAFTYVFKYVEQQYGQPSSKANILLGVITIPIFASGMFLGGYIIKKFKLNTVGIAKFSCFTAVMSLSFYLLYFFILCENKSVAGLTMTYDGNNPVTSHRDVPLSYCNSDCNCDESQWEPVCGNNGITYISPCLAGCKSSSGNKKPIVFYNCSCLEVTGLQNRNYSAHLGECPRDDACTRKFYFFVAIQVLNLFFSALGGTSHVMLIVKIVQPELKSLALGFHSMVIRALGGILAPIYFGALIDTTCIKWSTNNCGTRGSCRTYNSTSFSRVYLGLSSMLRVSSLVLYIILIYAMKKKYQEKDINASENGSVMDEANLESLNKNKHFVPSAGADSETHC

[9] = Arm 1 (reference): single agents together
[10] = Arm 2 (FDC02) vs reference (Arm 1)
[11] = Arm 3 (FDC04) vs reference (Arm 1)
[12] = Arm 4 (FDC01) vs reference (Arm 1)
[13] = Group 1, Day 23 (SMV + Compound (III) + ODV)
[14] = Group 2, Day 13 (ODV + Compound (III))
[15] = Group 2, Day 23 (ODV + Compound (III) + SMV)

P-gp, sequence (P08183 whole entry): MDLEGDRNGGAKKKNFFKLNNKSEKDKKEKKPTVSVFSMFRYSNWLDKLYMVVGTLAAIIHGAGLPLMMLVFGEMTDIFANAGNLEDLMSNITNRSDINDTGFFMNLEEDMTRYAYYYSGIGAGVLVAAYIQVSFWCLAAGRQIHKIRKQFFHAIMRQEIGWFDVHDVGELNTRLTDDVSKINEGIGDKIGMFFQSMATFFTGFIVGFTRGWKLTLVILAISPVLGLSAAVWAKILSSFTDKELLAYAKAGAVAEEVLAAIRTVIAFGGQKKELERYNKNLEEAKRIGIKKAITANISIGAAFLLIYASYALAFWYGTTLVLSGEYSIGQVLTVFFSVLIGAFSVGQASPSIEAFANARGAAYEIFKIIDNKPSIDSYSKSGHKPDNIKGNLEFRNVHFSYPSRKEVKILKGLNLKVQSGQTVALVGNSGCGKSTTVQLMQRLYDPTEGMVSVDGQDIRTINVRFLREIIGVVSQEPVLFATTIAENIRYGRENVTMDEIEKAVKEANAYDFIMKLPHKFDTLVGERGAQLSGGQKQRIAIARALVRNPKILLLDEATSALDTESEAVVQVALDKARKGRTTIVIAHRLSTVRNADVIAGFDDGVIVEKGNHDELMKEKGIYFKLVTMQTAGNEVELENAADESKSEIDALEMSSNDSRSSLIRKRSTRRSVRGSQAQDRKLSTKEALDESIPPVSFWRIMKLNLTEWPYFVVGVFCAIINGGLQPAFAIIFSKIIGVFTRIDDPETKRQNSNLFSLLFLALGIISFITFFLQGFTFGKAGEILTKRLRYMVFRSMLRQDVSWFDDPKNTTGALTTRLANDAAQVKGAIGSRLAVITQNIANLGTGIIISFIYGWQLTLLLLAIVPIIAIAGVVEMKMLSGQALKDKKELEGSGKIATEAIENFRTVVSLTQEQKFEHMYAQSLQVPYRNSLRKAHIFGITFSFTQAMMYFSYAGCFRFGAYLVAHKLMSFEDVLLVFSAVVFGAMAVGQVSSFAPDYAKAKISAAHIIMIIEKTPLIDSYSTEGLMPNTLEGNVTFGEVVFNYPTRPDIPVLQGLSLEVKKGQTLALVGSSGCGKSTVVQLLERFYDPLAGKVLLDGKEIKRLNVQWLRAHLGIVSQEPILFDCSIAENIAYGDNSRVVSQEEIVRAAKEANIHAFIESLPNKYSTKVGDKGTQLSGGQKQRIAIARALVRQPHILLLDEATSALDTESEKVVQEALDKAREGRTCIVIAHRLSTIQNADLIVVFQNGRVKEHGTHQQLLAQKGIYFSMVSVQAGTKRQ

SMILES: COC(=O)N[C@H](C(=O)N1[C@H](c2nc3cc(-c4cc5ccc4CCc4ccc(c(-c6ccc7[nH]c([C@@H]8C[C@@H]9CCCC[C@@H]9N8C(=O)[C@@H](NC(=O)OC)C(C)C)nc7c6)c4)CC5)ccc3[nH]2)C[C@@H]2CCCC[C@@H]21)C(C)C [ODV, Odalasvir]
- P-gp inhibition (in words) [1]: moderate inhibition
- IC50 ([1]; read-out: Pgp inhibition IC50): 9.5 µM
- t1/2term (mean ± SD) [2, 9]: 168.6 ± 21.7 h
- Least Square Means Ratio, AUClast [2, 10]: 89.66%
- Least Square Means Ratio, Cmax [2, 10]: 81.00%
- t1/2term (mean ± SD) ([2]; Arm 2: FDC02): 169.0 ± 24.5 h
- Least Square Means Ratio, AUClast [2, 11]: 182.32%
- Least Square Means Ratio, Cmax [2, 11]: 165.30%
- t1/2term (mean ± SD) ([2]; Arm 3: FDC04): 176.0 ± 29.5 h
- Least Square Means Ratio, AUClast [2, 12]: 180.14%
- Least Square Means Ratio, Cmax [2, 12]: 163.29%
- t1/2term (mean ± SD) ([2]; Arm 4: FDC01): 167.8 ± 22.4 h
- Cmax ([2]; Arm 1 (reference): single agents together, SMV 100-mg capsule, ODV 50-mg tablet, two Compound (III) 400-mg tablets): 186 ± 60.4 ng/mL
- AUC(0-t) [2, 9]: 6320 ± 2320 ng·h/mL
- AUC(0-inf) [2, 9]: 7080 ± 2140 ng·h/mL
- Tmax [2, 9]: 6 h
- Cmax ([2]; Arm 2: FDC02, SMV 100 mg + ODV 50 mg (ODV/HPMC-AS L 1/1 w/w) + Compound (III) 800 mg): 151 ± 54 ng/mL
- AUC(0-t) ([2]; Arm 2: FDC02): 5590 ± 1890 ng·h/mL
- AUC(0-inf) ([2]; Arm 2: FDC02): 7040 ± 2130 ng·h/mL
- Tmax ([2]; Arm 2: FDC02): 6 h
- Cmax ([2]; Arm 3: FDC04, SMV 100 mg + ODV 50 mg (ODV/HPMC-AS L 1/3 w/w) + Compound (III) 800 mg): 301 ± 80.5 ng/mL
- AUC(0-t) ([2]; Arm 3: FDC04): 11500 ± 4390 ng·h/mL
- AUC(0-inf) ([2]; Arm 3: FDC04): 14800 ± 5120 ng·h/mL
- Tmax ([2]; Arm 3: FDC04): 6 h
- Cmax ([2]; Arm 4: FDC01, SMV 100 mg + ODV 50 mg (copovidone and poloxamers) + Compound (III) 800 mg): 298 ± 81.7 ng/mL
- AUC(0-t) ([2]; Arm 4: FDC01): 11100 ± 3350 ng·h/mL
- AUC(0-inf) ([2]; Arm 4: FDC01): 15700 ± 3560 ng·h/mL
- Tmax ([2]; Arm 4: FDC01): 6 h
- CYP inhibition potential (in words) ([3]; on any CYP): does not inhibit
- inhibition of any CYP ([3]; up to 10 μM): no inhibition
- MRP2 inhibition (in words) [4]: no inhibition
- observed exposure versus anticipated ([5]; Cohort 1 / group (i)): higher than anticipated
- decrease of exposure with dosing frequency ([5]; reducing ODV dosing from QD to QOD): proportionally
- BSEP inhibition (in words) [6]: no inhibition
- increase of exposure, effect of the three Compounds ([7]; Compound (III) + SMV + ODV co-administered vs given alone): 1.5 fold
- AUC0-24 ([7]; Group 1, Day 20 (ODV + SMV)): 10800 ng·h/mL
- Cmax ([7]; Group 1, Day 20 (ODV + SMV)): 649 ng/mL
- AUC0-24 [7, 13]: 12800 ng·h/mL
- Cmax [7, 13]: 744 ng/mL
- AUC0-24 ([7]; Group 2, Day 10 (ODV alone)): 8720 ng·h/mL
- Cmax ([7]; Group 2, Day 10 (ODV alone)): 582 ng/mL
- AUC0-24 [7, 14]: 10200 ng·h/mL
- Cmax [7, 14]: 669 ng/mL
- AUC0-24 ([7]; Group 2, Day 20 (ODV + SMV)): 14000 ng·h/mL
- Cmax ([7]; Group 2, Day 20 (ODV + SMV)): 770 ng/mL
- AUC0-24 [7, 15]: 14800 ng·h/mL
- Cmax [7, 15]: 780 ng/mL
- effect of Compound (III) on exposure / bioavailability ([7]; co-administered with Compound (III)): no apparent effect; also recorded: does not alter
- increase of exposure caused by SMV ([7]; co-administered with SMV vs without): 1.6 fold
- OATP1B1 inhibition (in words) [8]: no inhibition
